pEC50: −log10 of the molar value.

In one experiment the target is T1, mouse TGR5 receptor (Mus musculus, UniProt Q80SS6).
T1 construct: host or cells: HEK293-EBNA (293 c18, ATCC CRL10852)
T1 sequence (Q80SS6 1-329): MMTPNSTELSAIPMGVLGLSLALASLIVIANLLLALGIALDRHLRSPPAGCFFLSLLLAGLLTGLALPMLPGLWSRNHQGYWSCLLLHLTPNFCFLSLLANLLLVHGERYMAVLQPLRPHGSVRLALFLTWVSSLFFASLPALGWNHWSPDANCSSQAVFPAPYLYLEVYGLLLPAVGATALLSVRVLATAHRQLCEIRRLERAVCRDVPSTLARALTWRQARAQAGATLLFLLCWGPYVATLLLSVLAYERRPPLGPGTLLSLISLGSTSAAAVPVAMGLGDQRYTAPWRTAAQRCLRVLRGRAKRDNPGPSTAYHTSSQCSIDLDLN
The experiment is described as follows: Mouse TGR5 HTRF cAMP production assay (HEK293-EBNA cells, Cisbio cAMP HiRange kit). It counts as cell-based. The note with it: HEK293-EBNA cells overexpressing mouse TGR5, HTRF cAMP assay. The essentials:
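HEK293-EBNA cells stably expressing mouse TGR5 (episomal vector) were suspended in serum-free DMEM with 500 μM IBMX and exposed to 12-point half-log compound dilutions for 1 h at room temperature. cAMP was detected by HTRF (d2-cAMP/anti-cAMP cryptate, 1 h, room temperature), giving EC50 from duplicates.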
(In general: Time-resolved FRET reads energy transfer from a long-lived donor to a nearby acceptor.)

Another experiment concerns the target T2, human TGR5 receptor (Homo sapiens, UniProt Q8TDU6).
T2 construct: host or cells: CHO-K1 (hTGR5-CHO)
T2 sequence (Q8TDU6 1-330): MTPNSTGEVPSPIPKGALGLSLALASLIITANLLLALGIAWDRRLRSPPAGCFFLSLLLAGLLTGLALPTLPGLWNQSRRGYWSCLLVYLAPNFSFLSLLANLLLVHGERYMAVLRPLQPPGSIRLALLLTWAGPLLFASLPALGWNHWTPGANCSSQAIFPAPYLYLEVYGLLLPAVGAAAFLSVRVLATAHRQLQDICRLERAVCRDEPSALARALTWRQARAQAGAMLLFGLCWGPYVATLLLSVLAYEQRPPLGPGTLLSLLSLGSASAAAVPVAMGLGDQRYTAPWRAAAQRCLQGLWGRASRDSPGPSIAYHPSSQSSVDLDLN
As to the kind of experiment: Human TGR5 cAMP production assay (hTGR5-CHO cells, DiscoveRx cAMP XS+ kit). Type of experiment: cell-based. The settings on record: luminescent cAMP assay, read-out: Human TGR5 Lum. cAMP Activity (EC50). The essentials: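 CHO-K1 cells stably expressing hTGR5, in PBS with IBMX and cAMP antibody, treated with half-log compound dilutions for 1 h at room temperature. cAMP measured by enzyme-fragment complementation luminescence after overnight detection; EC50 values reported.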
(In general: Cyclic AMP is a second messenger, typically raised through Gs and lowered through Gi signalling.)

What is called pEC50 is the EC50 on a negative log10 scale, so that one unit is a factor of ten. Regarding `O=C(NCCC1CCN(c2cc(N3CCC[C@H]3C(=O)NCCc3ccc(C(F)(F)F)cc3)nc(C(F)(F)F)n2)CC1)NCCS(=O)(=O)O` [Compound 86, (S)-2-(3-(2-(1-(2-(trifluoromethyl)-6-(2-((4-(trifluoromethyl)phenethyl)-carbamoyl)pyrrolidin-1-yl)pyrimidin-4-yl)piperidin-4-yl)ethyl)ureido)-ethanesulfonic acid], the pEC50 at mouse TGR5 receptor and at human TGR5 receptor was above 7.00 each time. For `N#Cc1ccc(CCNC(=O)[C@@H]2CCCN2c2cc(N3CCC(CCCC(=O)NCP(=O)(O)O)CC3)nc(C(F)(F)F)n2)cc1` [Compound 64, (S)-((4-(1-(6-(2-((4-cyanophenethyl)carbamoyl)pyrrolidin-1-yl)-2-(trifluoromethyl)pyrimidin-4-yl)piperidin-4-yl)butanamido)methyl)-phosphonic acid], the pEC50 on mouse TGR5 receptor and at human TGR5 receptor was above 7.00 in each case. As to `N#Cc1ccc(CCNC(=O)[C@@H]2CCCN2c2cc(N3CCC(CCCC(=O)NCCNc4cc(C(=O)O)ncn4)CC3)nc(C(F)(F)F)n2)cc1` [Compound 101, (S)-6-((2-(4-(1-(6-(2-((4-cyanophenethyl)carbamoyl)pyrrolidin-1-yl)-2-(trifluoromethyl)pyrimidin-4-yl)piperidin-4-yl)butanamido)ethyl)amino)-pyrimidine-4-carboxylic acid], the pEC50 at mouse TGR5 receptor and on human TGR5 receptor was above 7.00 each time. In the case of `CS(=O)(=O)NCCNC(=O)CCCC1CCN(c2cc(N3CCC[C@H]3C(=O)NCCc3ccc(C#N)cc3)nc(C(F)(F)F)n2)CC1` [Compound 93], the pEC50 on mouse TGR5 receptor and at human TGR5 receptor was above 7.00 each time. For the molecule `N#Cc1ccc(CCNC(=O)[C@@H]2CCCN2c2cc(N3CCC(CCCC(=O)N[C@@H](CCC(=O)O)C(=O)O)CC3)nc(C(F)(F)F)n2)cc1` [Compound 76, (S)-2-(4-(1-(6-((S)-2-((4-cyanophenethyl)carbamoyl)pyrrolidin-1-yl)-2-(trifluoromethyl)pyrimidin-4-yl)piperidin-4-yl)butanamido)-pentanedioic acid], the pEC50 at mouse TGR5 receptor and at human TGR5 receptor was above 7.00 in each case. Consider `N#Cc1ccc(CCNC(=O)[C@@H]2CCCN2c2cc(N3CCC(CCCC(=O)NCS(=O)(=O)O)CC3)nc(C(F)(F)F)n2)cc1` [Compound 66, (S)-(4-(1-(6-(2-((4-cyanophenethyl)carbamoyl)pyrrolidin-1-yl)-2-(trifluoromethyl)pyrimidin-4-yl)piperidin-4-yl)butanamido)-methanesulfonic acid], for which the pEC50 on mouse TGR5 receptor and on human TGR5 receptor was above 7.00 throughout.

Turning to `N#Cc1ccc(CCNC(=O)[C@@H]2CCCN2c2cc(N3CCC(CCNC(=O)NCCS(N)(=O)=O)CC3)nc(C(F)(F)F)n2)cc1` [Compound 80, (S)-N-(4-cyanophenethyl)-1-(6-(4-(2-(3-(2-sulfamoylethyl)ureido)-ethyl)piperidin-1-yl)-2-(trifluoromethyl)pyrimidin-4-yl)pyrrolidine-2-carboxamide], the pEC50 on mouse TGR5 receptor and on human TGR5 receptor was above 7.00 in each case. In the case of `N#Cc1ccc(CCNC(=O)[C@@H]2CCCN2c2cc(N3CCC(CCNC(=O)NCCC(=O)O)CC3)nc(C(F)(F)F)n2)cc1` [Compound 81, (S)-3-(3-(2-(1-(6-(2-((4-cyanophenethyl)carbamoyl)pyrrolidin-1-yl)-2-(trifluoromethyl)pyrimidin-4-yl)piperidin-4-yl)ethyl)ureido)-propanoic acid], the pEC50 on mouse TGR5 receptor and on human TGR5 receptor was above 7.00 each time. Regarding `O=C(CCCC1CCN(c2cc(N3CCC[C@H]3C(=O)NCCc3ccc(C(F)(F)F)cc3)nc(C(F)(F)F)n2)CC1)NCCNc1ncnc2c1ncn2[C@@H]1O[C@H](CO)C(O)C1O` (stereo partly drawn) [Compound 96, (2S)-1-(6-(4-(4-((2-((9-((2R,5R)-3,4-dihydroxy-5-(hydroxymethyl)-tetrahydrofuran-2-yl)-9H-purin-6-yl)amino)ethyl)amino)-4-oxobutyl)piperidin-1-yl)-2-(trifluoromethyl)-pyrimidin-4-yl)-N-(4-(trifluoromethyl)-phenethyl)-pyrrolidine-2-carboxamide], the pEC50 at mouse TGR5 receptor and at human TGR5 receptor was above 7.00 each time. In the case of `CS(=O)(=O)NCCNC(=O)CCCC1CCN(c2cc(N3CCC[C@H]3C(=O)NCCc3ccc(C(F)(F)F)cc3)nc(C(F)(F)F)n2)CC1` [Compound 91, (S)-1-(6-(4-(4-((2-(methylsulfonamido)ethyl)amino)-4-oxobutyl)piperidin-1-yl)-2-(trifluoromethyl)pyrimidin-4-yl)-N-(4-(trifluoromethyl)phenethyl)pyrrolidine-2-carboxamide], the negative logarithm of the EC50 (pEC50) at mouse TGR5 receptor and at human TGR5 receptor was above 7.00 throughout. As for `N#Cc1ccc(CCNC(=O)[C@@H]2CCCN2c2cc(N3CCC(COCC(=O)O)CC3)nc(C(F)(F)F)n2)cc1` [Compound 88, (S)-2-((1-(6-(2-((4-cyanophenethyl)carbamoyl)pyrrolidin-1-yl)-2-(trifluoromethyl)pyrimidin-4-yl)piperidin-4-yl)methoxy)acetic acid], the pEC50 on mouse TGR5 receptor is above 7.00; at human TGR5 receptor it was 6.00 to 7.00. In the case of `N#Cc1ccc(CCNC(=O)[C@@H]2CCCN2c2cc(N3CCC(CCCC(=O)N[C@@H](CCCNC(=N)N)C(=O)O)CC3)nc(C(F)(F)F)n2)cc1` [Compound 72, (S)-2-(4-(1-(6-((S)-2-((4-cyanophenethyl)carbamoyl)pyrrolidin-1-yl)-2-(trifluoromethyl)pyrimidin-4-yl)piperidin-4-yl)butanamido)-5-guanidinopentanoic acid], the pEC50 on mouse TGR5 receptor and at human TGR5 receptor was above 7.00 throughout. Regarding `N#Cc1ccc(CCNC(=O)[C@@H]2CCCN2c2cc(N3CCC(CCNC(=O)NCCS(=O)(=O)O)CC3)nc(C(F)(F)F)n2)cc1` [Compound 78, (S)-2-(3-(2-(1-(6-(2-((4-cyanophenethyl)carbamoyl)pyrrolidin-1-yl)-2-(trifluoromethyl)pyrimidin-4-yl)piperidin-4-yl)ethyl)ureido)ethanesulfonic acid], the pEC50 on mouse TGR5 receptor and on human TGR5 receptor was above 7.00 throughout. For `N#Cc1ccc(CCNC(=O)[C@@H]2CCCN2c2cc(N3CCC(CO)CC3)nc(C(F)(F)F)n2)cc1` [Compound 1, (S)—N-(4-cyanophenethyl)-1-(6-(4-(hydroxymethyl)piperidin-1-yl)-2-(trifluoromethyl)pyrimidin-4-yl)pyrrolidine-2-carboxamide], the pEC50 on human TGR5 receptor is above 7.00.

`N#Cc1ccc(CCNC(=O)[C@@H]2CCCN2c2cc(N3CCC(CCCC(=O)NCC(N)=O)CC3)nc(C(F)(F)F)n2)cc1` [Compound 68, (S)-1-(6-(4-(4-((2-amino-2-oxoethyl)amino)-4-oxobutyl)piperidin-1-yl)-2-(trifluoromethyl)pyrimidin-4-yl)-N-(4-cyanophenethyl)pyrrolidine-2-carboxamide]: the negative-log EC50 (pEC50) on mouse TGR5 receptor and on human TGR5 receptor was above 7.00 in each case.

The values are drawn from patent US10654834B2 (Venenum Biodesign, LLC, priority 2016, dated 2020).
